A short description of the data set: in vitro. The following applies: human, liver microsomes. For orientation: Liver microsomes are vesicles of endoplasmic reticulum, rich in cytochrome P450 enzymes.
Description: Metabolic stability in human liver microsome assessed as compound remaining after 30 mins
Molecule `CC(Oc1cc(-c2cnn(C(C)C)c2)cnc1N)c1c(Cl)ccc(F)c1Cl` (racemic) returned an amount remaining at 0.5 h of 3.2%. `CC(Oc1cc(-c2cnn(C)c2)cnc1N)c1c(Cl)ccc(F)c1Cl` (racemic) registered an amount remaining at 0.5 h of 5.2%. Molecule `CC(Oc1cc(-c2cnn(C(C)(C)C(=O)NCCN(C)C)c2)cnc1N)c1c(Cl)ccc(F)c1Cl` (racemic) came in with an amount remaining at 0.5 h of 3.6%. Take `CC(Oc1cc(-c2cnn(CC(=O)NCCCN(C)C)c2)cnc1N)c1c(Cl)ccc(F)c1Cl` (racemic): the amount remaining at 0.5 h was found to be 23.8%.

Molecule `CC(Oc1cc(-c2cnn(CC3(O)CCOCC3)c2)cnc1N)c1c(Cl)ccc(F)c1Cl` (racemic) yielded an amount remaining at 0.5 h of 0.9%. `CC(Oc1cc(-c2cnn(CC3CNC3)c2)cnc1N)c1c(Cl)ccc(F)c1Cl` (racemic) came in with a share remaining at 0.5 h of 71%. Molecule `CC(Oc1cc(-c2cnn(CC3CN(CC(N)=O)C3)c2)cnc1N)c1c(Cl)ccc(F)c1Cl` (racemic) yielded a fraction remaining at 0.5 h of 47.8%. With `CC(Oc1cc(-c2cnn(C3CNC3)c2)cnc1N)c1c(Cl)ccc(F)c1Cl` (racemic), the share remaining at 0.5 h was determined as 44%.

In turn, `CC(Oc1cc(-c2cnn(C3CCCNC3)c2)cnc1N)c1c(Cl)ccc(F)c1Cl` (racemic) returned a share remaining at 0.5 h of 44.3%.

The amount remaining is what is left of the initial amount, in per cent.

The record behind these values is ChEMBL document CHEMBL1821723 (J Med Chem, 2011).
